# Assay results taken from US20250085273A1, “NOVEL RAPID DRUG DISCOVERY FOR SEPSIS AND AGENTS FOR USE AS SEPSIS THERAPY” (priority 2023, published 2025).
# Where two headings read alike, the source gives them in different places.
# Columns and labels:
# [1] = tested on: 3-dpf Zebrafish Embryos Challenged with LPS (P. aeruginosa 60 μg/mL); format: in vivo, Danio rerio; settings: P. aeruginosa LPS 60 μg/mL, compound 10 μM; for Percent Rescue (Mort + Tail Edema): 3-dpf embryos, n=16; for Percent Rescue (Mort + Tail Edema) / rescue of tail edema and mortality (sepsis rescue rate) at 3-dpf: 24 hours; for 3 dpf Embryos Percent Rescue (Mort + Tail Edema): initial 3-dpf screen shown for reference
# Outline: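 3-dpf PTU-treated AB zebrafish embryos exposed to 60 μg/mL P. aeruginosa LPS plus 10 μM compound (final) at 28.5 °C, n=16 per compound. Tail edema and mortality scored at 6 and 24 h post exposure; rescue judged against LPS-only controls at 24 h.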
# [2] = tested on: zebrafish (4 dpf pre-treated, LPS exposure at 5-dpf) challenged with P. aeruginosa LPS 60 μg/mL; format: in vivo, Danio rerio; settings: for Pre-Treatment Rescue (n = 16): 24-hour drug pre-treatment; for Pre-Treatment Rescue (n = 16) / No Pre-Treatment Rescue (n = 16): P. aeruginosa LPS 60 μg/mL; for No Pre-Treatment Rescue (n = 16): no 24-hour drug pre-treatment; for 24 hour Tail Edema, No-Drug Pretreatment / 24 Hour Mortality and Tail Edema, Drug Pretreatment / 24 Hour Mortality, Drug Pretreatment / 24 hour Tail Edema, Drug Pretreatment / 24 Hour Mortality and Tail Edema, No-Drug Pretreatment / 24 Hour Mortality, No Drug Pretreatment: number of n = 16 fish; for 24 hour Tail Edema, No-Drug Pretreatment: 10 μM drug with LPS 60 μg/mL; for 24 hour Tail Edema, No-Drug Pretreatment / 24 Hour Mortality and Tail Edema, No-Drug Pretreatment / 24 Hour Mortality, No Drug Pretreatment: no 24-hour pre-treatment; for 24 Hour Mortality and Tail Edema, Drug Pretreatment / 24 Hour Mortality, Drug Pretreatment: 24-hour 10 μM drug pre-treatment; for 24 hour Tail Edema, Drug Pretreatment: 24-hour 10 μM drug pre-treatment before LPS 60 μg/mL
# Outline: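 PTU-treated 4 dpf zebrafish embryos received a 24-hour drug pre-treatment at 28.5 °C, alongside an untreated parallel group, before challenge at 5 dpf with P. aeruginosa LPS at 60 μg/mL. Tail edema and mortality were scored at 6 and 24 h post exposure, followed by a neurobehavioral test.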
# [3] = tested on: 5-dpf zebrafish larvae challenged with P. aeruginosa LPS 60 μg/mL; format: in vivo, Danio rerio; settings: compound 10 μM; for 5 dpf Embryos Percent Rescue (Mort + Tail Edema): 5-dpf larvae
# [4] = tested on: 5-dpf zebrafish challenged with K. Pneumoniae LPS (45 μg/mL); assay: Challenge with K. Pneumoniae LPS (45 μg/mL), 5-dpf zebrafish; format: in vivo, Danio rerio
# Method: These tests followed the same methods described in the 5-dpf zebrafish confirmatory testing, but K. Pneumoniae LPS (45 μg/mL final in well concentration) was used instead of P. aeruginosa LPS.
# [5] = biological target: hERG potassium ion channel current (IhERG) (Homo sapiens, UniProt Q12809); settings: cited from earlier work
# Chain of hERG potassium ion channel current (IhERG) (Q12809 whole entry): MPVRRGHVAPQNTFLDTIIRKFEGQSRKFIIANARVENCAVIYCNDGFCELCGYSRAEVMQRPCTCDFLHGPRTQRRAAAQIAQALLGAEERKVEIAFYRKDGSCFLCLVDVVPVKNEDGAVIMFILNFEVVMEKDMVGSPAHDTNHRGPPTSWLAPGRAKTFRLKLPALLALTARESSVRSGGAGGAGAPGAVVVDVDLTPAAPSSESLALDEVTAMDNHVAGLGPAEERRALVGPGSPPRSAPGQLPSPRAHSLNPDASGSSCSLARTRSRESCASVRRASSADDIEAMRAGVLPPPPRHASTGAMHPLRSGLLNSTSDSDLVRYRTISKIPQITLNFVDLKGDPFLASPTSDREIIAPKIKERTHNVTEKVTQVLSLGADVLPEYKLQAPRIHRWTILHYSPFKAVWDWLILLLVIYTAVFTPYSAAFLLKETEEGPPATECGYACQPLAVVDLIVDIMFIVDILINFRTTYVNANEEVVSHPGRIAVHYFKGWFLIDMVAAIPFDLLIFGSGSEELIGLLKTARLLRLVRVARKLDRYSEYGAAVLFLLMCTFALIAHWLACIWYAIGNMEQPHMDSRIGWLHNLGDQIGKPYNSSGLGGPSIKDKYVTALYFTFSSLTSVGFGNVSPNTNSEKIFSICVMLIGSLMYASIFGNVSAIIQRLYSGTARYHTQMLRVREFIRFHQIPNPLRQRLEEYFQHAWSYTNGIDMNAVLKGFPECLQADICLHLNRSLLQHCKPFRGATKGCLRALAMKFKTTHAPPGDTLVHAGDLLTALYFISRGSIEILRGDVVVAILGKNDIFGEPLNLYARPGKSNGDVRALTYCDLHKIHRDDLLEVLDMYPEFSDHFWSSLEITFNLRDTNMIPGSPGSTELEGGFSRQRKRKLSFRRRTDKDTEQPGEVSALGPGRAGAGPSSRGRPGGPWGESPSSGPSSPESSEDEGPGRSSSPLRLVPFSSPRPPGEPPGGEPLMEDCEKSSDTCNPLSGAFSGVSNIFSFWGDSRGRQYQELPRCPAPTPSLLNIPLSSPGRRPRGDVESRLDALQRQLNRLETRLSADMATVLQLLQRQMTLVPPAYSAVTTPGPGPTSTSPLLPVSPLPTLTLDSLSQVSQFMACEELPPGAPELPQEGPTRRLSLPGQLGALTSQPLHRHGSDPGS
# human recombinant 5-HT2A = human recombinant 5-HT2A (Homo sapiens, UniProt P28223); settings: cited from earlier work
# Chain of human recombinant 5-HT2A (P28223 whole entry): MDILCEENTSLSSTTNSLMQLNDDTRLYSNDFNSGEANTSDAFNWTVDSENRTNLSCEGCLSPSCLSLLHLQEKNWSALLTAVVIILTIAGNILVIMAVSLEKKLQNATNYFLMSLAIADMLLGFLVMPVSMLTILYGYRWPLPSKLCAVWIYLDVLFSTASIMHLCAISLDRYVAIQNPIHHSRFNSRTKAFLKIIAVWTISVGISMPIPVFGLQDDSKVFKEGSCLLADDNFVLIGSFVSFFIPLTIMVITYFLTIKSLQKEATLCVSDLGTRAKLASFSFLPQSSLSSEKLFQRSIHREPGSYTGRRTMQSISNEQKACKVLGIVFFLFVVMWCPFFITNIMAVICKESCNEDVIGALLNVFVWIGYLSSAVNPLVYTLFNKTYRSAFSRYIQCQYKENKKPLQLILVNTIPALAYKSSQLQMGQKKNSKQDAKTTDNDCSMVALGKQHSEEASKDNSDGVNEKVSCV
# 5-HT2B = 5-HT2B (Homo sapiens, UniProt P41595); settings: cited from earlier work
# Chain of 5-HT2B (P41595 whole entry): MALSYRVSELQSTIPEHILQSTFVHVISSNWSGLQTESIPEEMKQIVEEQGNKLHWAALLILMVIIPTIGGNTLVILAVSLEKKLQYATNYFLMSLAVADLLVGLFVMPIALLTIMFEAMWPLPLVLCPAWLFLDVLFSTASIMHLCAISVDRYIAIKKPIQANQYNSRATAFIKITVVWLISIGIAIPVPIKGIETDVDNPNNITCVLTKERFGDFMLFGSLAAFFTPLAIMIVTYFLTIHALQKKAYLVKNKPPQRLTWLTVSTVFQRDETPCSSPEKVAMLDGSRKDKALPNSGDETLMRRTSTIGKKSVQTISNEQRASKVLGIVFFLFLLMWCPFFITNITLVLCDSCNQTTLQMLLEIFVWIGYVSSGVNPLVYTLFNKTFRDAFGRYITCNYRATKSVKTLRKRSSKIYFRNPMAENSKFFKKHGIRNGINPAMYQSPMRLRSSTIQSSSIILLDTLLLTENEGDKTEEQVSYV
# human recombinant 5-HT2C = biological target: T1, human recombinant 5-HT2C (Homo sapiens, UniProt P28335); settings: cited from earlier work
# T1 sequence (P28335 33-458): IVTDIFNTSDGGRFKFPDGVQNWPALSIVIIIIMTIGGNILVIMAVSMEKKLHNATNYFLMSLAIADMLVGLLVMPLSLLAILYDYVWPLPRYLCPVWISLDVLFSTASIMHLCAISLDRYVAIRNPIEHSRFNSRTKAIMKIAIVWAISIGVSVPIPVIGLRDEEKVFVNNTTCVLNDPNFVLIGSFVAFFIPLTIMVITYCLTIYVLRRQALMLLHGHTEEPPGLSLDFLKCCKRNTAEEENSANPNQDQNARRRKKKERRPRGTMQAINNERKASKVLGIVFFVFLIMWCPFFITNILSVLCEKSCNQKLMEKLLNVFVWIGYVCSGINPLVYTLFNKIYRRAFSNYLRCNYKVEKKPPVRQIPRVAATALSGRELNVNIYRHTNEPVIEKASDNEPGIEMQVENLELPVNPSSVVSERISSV
# [6] = tested on: larval zebrafish locomotor behavior; format: in vivo
# Text: This assay is a modified version of the larval zebrafish light dark transition assay with an added UV light (wavelength=295 nm) phase to capture any compound specific neurological effects to UV light. (Basnet et al., 2019, Kokel et al., 2013, Peng et al., 2016). The light period assesses deviations from normal locomotor behavior while the rapid transition to dark provides a measure of stress response by identifying any deviations from the normal heightened locomotor activity caused by the transition to dark. The neurobehavioral assay used a custom trial control script created by Noldus Ethovision XT 15, and it was executed in a Noldus DanioVision system. Zebrafish larvae in microplates were allowed to habituate in the DanioVision system for 5 minutes under white light conditions prior to the start of the test. The neurobehavioral assay consisted of three phases: a 3-minute light phase (white light), a 3-minute dark phase (no light) and a 5 second UV phase (UV light only). The Danio Vision system captured larval zebrafish movement throughout this assay at 30 frames per second.
# (§1) LC50s for the LPS tests were determined using the Trimmed Spearmen-Karber method (Hamilton et al., 1977). The tail edema and mortality data from the initial and confirmatory drug testing was analyzed using GraphPad Prism 9 using Fisher's Exact Test. Each drug treatment group was compared pairwise with the on-board positive control group on each test plate. Statistical significance was determined with values of p≤0.05. Neurological behavioral testing data was analyzed by Ethovision software that produced an activity analysis profile per frame for each well of the 96 well plates. Any dead embryos were removed from the data set, and the remaining data set was imported into Excel. The offset function in Excel was used to average the percentage of pixel change per 0.1 s for each plate. […] The behavioral data was then statistically analyzed by drug per phase using a 2 tailed t-test to determine statistical significance p≤0.01.
# [7] = tested on: zebrafish exposed to P. aeruginosa LPS; assay: Model compound testing in the optimized zebrafish sepsis model (varying LPS dose ranges); format: in vivo, Danio rerio; settings: for complete rescue of exposed fish: 60 μg/mL LPS challenge concentration; for mortality at 24 hours post exposure: 24 hours post LPS exposure
# Method: Three sources of LPS were evaluated: E. coli 0111:B4, P. aeruginosa Sigma L9143, and K. pneumoniae. E. coli 0111:B4 LPS was selected as the reference LPS used by Philip et al. (2017). P. aeruginosa LPS is commonly associated with infections in hospitals, accounting for an estimated 32,600 cases and resulting in an estimated 2,700 deaths in 2017 (CDC Report 2019). P. aeruginosa infections are also a common cause of sepsis in both patients with severe burns and immunocompromised patients. K. pneumoniae LPS has military relevance related to battlefield injury infections (Kiley et al., 2021). Initial range finding LC50 tests with larval zebrafish were conducted for each LPS strain at both 3-dpf and 5-dpf. […] (E. coli 0111:B4 was also tested at higher concentrations, 400, 800, and 1000 μg/mL due a lack of toxicity within the initial dose range.) Well plates were then covered with parafilm and placed into an incubator at 28.5° C. for 24 hours. After 6 and 24 hours, the plates were removed and scored for mortality, tail edema, and ROS production. The tail edema endpoint evaluates vascular leakage from caudal fin in response to LPS exposure (FIG. 2). ROS production was determined as described by Philip et al. (2017) by adding 2,7-dichloroflurescein diacetate (100 μM) to the wells containing the zebrafish larvae and incubating them in a 100% dark photoperiod incubator at 28.5° C. for one hour. Florescent images of the incubated zebrafish were then captured with a Keyence BZ-X710 fluorescent microscope using 10× objective with a GFP filter and fixed 1/15 second exposure for all imaging. […] Results from the LPS toxicity testing and endpoint screening were used to develop the optimized testing procedure through evaluation in selected model compounds, as described in the next section and in the results.
# The optimized zebrafish sepsis model was evaluated against compounds previously shown to have efficacy in previous zebrafish sepsis models: fasudil, hydrocortisone, dexamethasone, and fisetin. Fasudil, an anti-vascular leakage compound (inhibitor of the RhoA/Rho-kinase pathway) was shown by Philip et al. (2017) to rescue zebrafish from LPS-induced mortality, ROS production, and tail fin edema. Fasudil also rescued LPS-induced vascular leakage in murine models of experimental sepsis (Li et al., 2010) and reduced acute lung injury in septic rats through inhibition of the Rho/ROCK signaling pathway (Wang et al., 2018). […] Endpoints evaluated with model compounds included mortality, tail edema, and ROS at 6- and 24-hours post exposure to varying dose ranges of LPS.
# as §1, with “Excel.” for “Excel. The offset function in Excel was used to average the percentage of pixel change per 0.1 s for each plate.”
# [8] = tested on: larval zebrafish exposed to Pseudomonas aeruginosa 60 μg/mL lipopolysaccharide (LPS); assay: Zebrafish endotoxicity/sepsis model drug screening, statements without larval stage; format: in vivo, Danio rerio
# Text: To identify potential sepsis drug candidates, an optimized larval zebrafish model of endotoxicity/sepsis was used to screen commercial libraries of U.S. Food and Drug Administration (FDA)-approved drugs and other active pharmaceutical ingredients (API) known to affect pathways implicated in the initiation and progression of sepsis in humans (i.e., inflammation, mitochondrial dysfunction, coagulation, and apoptosis). In this model, endotoxicity was induced in 3- and 5-day post fertilization larval zebrafish (characterized by mortality and tail fin edema (vascular leakage)) by immersion exposure to Pseudomonas aeruginosa 60 μg/mL lipopolysaccharide (LPS) for 24 hours, then screened for the rescue potential of 644 selected drugs simultaneously with LPS at 10 μM. After LPS exposure, a neurobehavioral assay (light-dark test) was performed to further evaluate rescue from endotoxicity and to determine possible off-target drug side effects.
Compound,Percent Rescue (Mort + Tail Edema) [1] [%],rescue of tail edema and mortality (sepsis rescue rate) at 3-dpf [1] [%],3 dpf Embryos Percent Rescue (Mort + Tail Edema) [1] [%],Pre-Treatment Rescue (n = 16) [2] [%],No Pre-Treatment Rescue (n = 16) [2] [%],"24 hour Tail Edema, No-Drug Pretreatment [2] [fish]","24 Hour Mortality and Tail Edema, Drug Pretreatment [2] [fish]","24 Hour Mortality, Drug Pretreatment [2] [fish]","24 hour Tail Edema, Drug Pretreatment [2] [fish]","24 Hour Mortality and Tail Edema, No-Drug Pretreatment [2] [fish]","24 Hour Mortality, No Drug Pretreatment [2] [fish]",5 dpf Embryos Percent Rescue (Mort + Tail Edema) [3] [%],rescue of tail edema and mortality (sepsis rescue rate) at 5-dpf [3] [%],rescue of tail edema and mortality [4] [%],complete rescue of exposed fish [7],mortality at 24 hours post exposure [7],also measured
"O=C(c1ccc(F)cc1)C1CCN(CCn2c(=O)[nH]c3ccccc3c2=O)CC1 [Compound 88, Ketanserin]",100,100,100,100,100,0,0,0,0,0,0,81,81,88,–,–,rescue of tail edema and mortality (sepsis rescue rate) at 5-dpf ([3]; listed as ketanserin): 100%; IC50 [5]: 110 nM
"CCCCCNC(=N)N/N=C/c1c[nH]c2ccc(OC)cc12 [Compound 400, Tegaserod (maleate)]",100,100,100,100,88,1,0,0,0,2,1,100,100,100,–,–,"pKi 5-HT2A (human recombinant 5-HT2A): 7.5; pKi 5-HT2B (5-HT2B): 8.4; pKi 5-HT2C (human recombinant 5-HT2C): 7.0; light/dark neurobehavioral testing, difference from negative controls ([6]; after LPS exposure, with and without drug pre-treatment): little to no difference from negative controls; Post Test Behavioral Assay ([6]; after pre-treatment test LPS exposure): Normal"
O=S(=O)(c1cccc2cnccc12)N1CCCNCC1 [Fasudil],–,–,–,–,–,–,–,–,–,–,–,–,–,–,Neither compound showed complete rescue,statistically significant (p=0.0233) reduction in mortality,–
O=c1c(O)c(-c2ccc(O)c(O)c2)oc2cc(O)ccc12 [Fisetin],–,–,–,–,–,–,–,–,–,–,–,–,–,–,Neither compound showed complete rescue,–,–
C[C@]12CCC(=O)C=C1CC[C@@H]1[C@@H]2[C@@H](O)C[C@@]2(C)[C@H]1CC[C@]2(O)C(=O)CO [hydrocortisone],–,–,–,–,–,–,–,–,–,–,–,–,–,–,–,increased mortality over no treatment,efficacy (mortality) at 6 hours ([7]; 6 hours post LPS exposure): some efficacy noted; rescue at 6-hour exposure time point ([8]; 6-hour exposure time point): showed rescue early; rescue by 24 hours post exposure ([8]; 24 hours post exposure): failed to show any level of rescue
Ferric citrate [Compound 340],94,94,94,–,–,2,15,15,0,15,13,81,81,–,–,–,fish with tail edemas ([8]; 6 hours post exposure): 9 of 16 fish; fish with tail edema ([8]; 24 hours): 1 of 16
